Counter-ions that a name gives are not always drawn.
target: HIF PHD2 (Homo sapiens, UniProt Q9GZT9); assay: PHD2 inhibition assay (TR-FRET, VCB-Eu detection of hydroxylated P564-HIF1α peptide); type: biochemical; settings: 2 nM PHD2, 100 nM P564-HIF1α peptide, 0.25 μM 2-oxoglutarate
Procedure: Inhibition of HIF PHD2 activity was quantified utilizing the TR-FRET technology. HIF PHD2 catalyzes a hydroxyl modification on the proline residue of the P564-HIF1α peptide substrate (Biotin-DLEMLAPYIPMDDDFQL (SEQ ID NO: 7)) resulting in recognition and binding of the europylated Von Hippel-Lindau protein (pVHL), elongin B and elongin C heterotrimeric (VCB-Eu) complex.
The PHD2 inhibition assay was executed by addition of freshly dissolved FeCl2 to 178.57 μM (100 μM final concentration) in PHD2 Reaction Buffer containing 30 mM MES, pH 6, 10 mM NaCl, 0.25% Brij-35, 0.01% BSA, and 1% DMSO. 28 μL of the iron solution and 2 μL of inhibitor compounds serially diluted in 100% DMSO (5% DMSO final) were added to black polypropylene 96-well microtiter plates. To that, 10 μL of 10 nM PHD2 (2 nM final) was added to all wells of the plate except for the 8 wells of column 12 (LO control), and allowed to incubate at room temperature on the shaker for one hour. Column 6 was the HI control containing PHD2 enzyme and 5% DMSO vehicle, but no inhibitor compound. To initiate the PHD2 enzymatic reaction, 10 μL of a solution containing 500 nM P564-HIF1α peptide (100 nM final), 10 mM ascorbic acid (2 mM final), and 1.25 μM 2-oxoglutarate (α-ketoglutarate; 0.25 μM final) in PHD2 Reaction Buffer was added to all wells of the plate and allowed to incubate on the shaker at room temperature for one hour.
The reaction was terminated by addition of 25 μL TR-FRET Buffer (50 mM TRIS-HCl, pH 9, 100 mM NaCl, 0.05% BSA, and 0.5% Tween-20) containing 150 mM succinate (product inhibitor; 50 mM final), 75 nM streptavidin-APC (25 nM final), and 7.5 nM VCB-Eu (2.5 nM final). The TR-FRET detection reagents were placed on a shaker for 1 hour to reach binding equilibrium before reading on the Discovery platform (PerkinElmer). Europium is excited at 315 nm and phosphoresces at 615 nm with a large Stoke's shift. APC, in turn, emits at 655 nm upon excitation at 615 nm. The TR-FRET signal is measured as the ratio of the APC 655 nm signal divided by the internal europium reference 615 nm emission signal.
The POC (percentage of control) was determined by comparing the signal from hydroxylated peptide substrate in the enzyme reaction containing inhibitor compound with that from PHD2 enzyme with DMSO vehicle alone (HI control), and no enzyme (LO control). POC was calculated using the formula: % control (POC)=(cpd−average LO)/(average HI−average LO)*100. Data (consisting of POC and inhibitor concentration in μM) was fitted to a 4-parameter equation (y=A+((B−A)/(1+((x/C)^D))), where A is the minimum y (POC) value, B is the maximum y (POC), C is the x (cpd concentration) at the point of inflection and D is the slope factor) using a Levenburg-Marquardt non-linear regression algorithm.

HIF PHD2, sequence (Q9GZT9 whole entry): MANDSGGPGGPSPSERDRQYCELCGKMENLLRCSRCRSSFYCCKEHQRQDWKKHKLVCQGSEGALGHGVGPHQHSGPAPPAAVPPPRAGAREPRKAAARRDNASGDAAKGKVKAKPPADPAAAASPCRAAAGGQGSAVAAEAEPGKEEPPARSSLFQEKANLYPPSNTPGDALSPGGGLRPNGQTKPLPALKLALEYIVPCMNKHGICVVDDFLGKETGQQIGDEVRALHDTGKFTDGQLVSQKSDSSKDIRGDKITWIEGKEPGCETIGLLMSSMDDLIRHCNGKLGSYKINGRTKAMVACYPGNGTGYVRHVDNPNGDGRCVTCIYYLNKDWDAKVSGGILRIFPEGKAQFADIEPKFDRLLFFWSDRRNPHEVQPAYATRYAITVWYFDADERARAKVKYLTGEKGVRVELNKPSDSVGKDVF

Row | Compound | IC50 [nM]
1 | Cn1c(=O)c(C(=O)NCC(=O)O)c(O)c2ncc(C3=CCCC3)cc21 [Example 4, 2-(7-Cyclopentenyl-4-hydroxy-1-methyl-2-oxo-1,2-dihydro-1,5-naphthyridine-3-carboxamido)acetic acid] | < 50
2 | Cn1c(=O)c(C(=O)NCC(=O)O)c(O)c2cc(-c3ccc(F)nc3)cnc21 [Example 51, N-((6-(6-Fluoro-3-pyridinyl)-4-hydroxy-1-methyl-2-oxo-1,2-dihydro-1,8-naphthyridin-3-yl)carbonyl)glycine] | < 50
3 | Cn1c(=O)c(C(=O)NCC(=O)O)c(O)c2cc(-c3ccncc3)cnc21 [Example 43, 2-(4-Hydroxy-1-methyl-2-oxo-6-(pyridin-4-yl)-1,2-dihydro-1,8-naphthyridine-3-carboxamido)acetic acid] | 100 to 500
4 | Cn1c(=O)c(C(=O)NCC(=O)O)c(O)c2cc(-c3ccc(OC(F)(F)F)cc3)ncc21 [Example 110, 2-(4-Hydroxy-1-methyl-2-oxo-6-(4-(trifluoromethoxy)phenyl)-1,2-dihydro-1,7-naphthyridine-3-carboxamido)acetic acid, Trifluoroacetic acid salt.] | < 50
5 | CN1CC=C(c2cc3c(O)c(C(=O)NCC(=O)O)c(=O)n(C)c3cn2)CC1 [Example 116, 2-(4-Hydroxy-1-methyl-6-(1-methyl-1,2,3,6-tetrahydropyridin-4-yl)-2-oxo-1,2-dihydro-1,7-naphthyridine-3-carboxamido)acetic acid, Trifluoroacetic acid salt] | < 50
6 | Cn1c(=O)c(C(=O)NCC(=O)O)c(O)c2cc(C3=CCNCC3)ncc21 [Example 114, 2-(4-Hydroxy-1-methyl-2-oxo-6-(1,2,3,6-tetrahydropyridin-4-yl)-1,2-dihydro-1,7-naphthyridine-3-carboxamido)acetic acid, Trifluoroacetic acid salt] | 50 to 100
7 | Cn1c(=O)c(C(=O)NCC(=O)O)c(O)c2cc(C#CC3CC3)cnc21 [Example 82, 2-(6-(2-Cyclopropylethynyl)-4-hydroxy-1-methyl-2-oxo-1,2-dihydro-1,8-naphthyridine-3-carboxamido)acetic acid] | < 50
8 | Cn1c(=O)c(C(=O)NCC(=O)O)c(O)c2cc(-c3cncnc3)cnc21 [Example 61, N-((4-Hydroxy-1-methyl-2-oxo-6-(5-pyrimidinyl)-1,2-dihydro-1,8-naphthyridin-3-yl)carbonyl)glycine] | < 50
9 | Cn1c(=O)c(C(=O)NCC(=O)O)c(O)c2cc(C3=CCCCC3)cnc21 [Example 67, 2-(6-Cyclohexenyl-4-hydroxy-1-methyl-2-oxo-1,2-dihydro-1,8-naphthyridine-3-carboxamido)acetic acid] | < 50
10 | Cc1ncccc1-c1cnc2c(c1)c(O)c(C(=O)NCC(=O)O)c(=O)n2C [Example 45, 2-(4-Hydroxy-1-methyl-6-(2-methylpyridin-3-yl)-2-oxo-1,8-naphthyridine-3-carboxamido)acetic acid] | < 50
11 | Cn1c(=O)c(C(=O)NCC(=O)O)c(O)c2cc(C3CCNCC3)ncc21 [Example 115, 2-(4-Hydroxy-1-methyl-2-oxo-6-(piperidin-4-yl)-1,2-dihydro-1,7-naphthyridine-3-carboxamido)acetic acid, Trifluoroacetic acid salt] | 50 to 100
12 | Cn1c(=O)c(C(=O)NCC(=O)O)c(O)c2cc(-c3ccccc3N3CCCCC3)cnc21 [Example 58, N-((4-Hydroxy-1-methyl-2-oxo-6-(2-(1-piperidinyl)phenyl)-1,2-dihydro-1,8-naphthyridin-3-yl)carbonyl)glycine] | 50 to 100
13 | C[C@H](NC(=O)c1c(O)c2cc(I)cnc2n(C)c1=O)C(=O)O [Example 73, (S)-2-(4-Hydroxy-6-iodo-1-methyl-2-oxo-1,2-dihydro-1,8-naphthyridine-3-carboxamido)propanoic acid] | < 50
14 | Cn1c(=O)c(C(=O)NCC(=O)O)c(O)c2cc(-c3ccccc3)c(C(F)(F)F)nc21 [Example 90, 2-(4-Hydroxy-1-methyl-2-oxo-6-phenyl-7-(trifluoromethyl)-1,2-dihydro-1,8-naphthyridine-3-carboxamido)acetic acid] | < 50
15 | Cn1c(=O)c(C(=O)NCC(=O)O)c(O)c2cc(C3CCOC3)c(C(F)(F)F)nc21 (racemic) [Example 100, (R,S) 2-(4-Hydroxy-1-methyl-2-oxo-6-(tetrahydrofuran-3-yl)-7-(trifluoromethyl)-1,2-dihydro-1,8-naphthyridine-3-carboxamido)acetic acid] | < 50
16 | Cn1c(=O)c(C(=O)NCC(=O)O)c(O)c2ccc(Br)nc21 [Example 11, 2-(7-Bromo-4-hydroxy-1-methyl-2-oxo-1,2-dihydro-1,8-naphthyridine-3-carboxamido)acetic acid] | < 50
17 | Cn1c(=O)c(C(=O)NCC(=O)O)c(O)c2cc(I)cnc21 [Example 75, 2-(4-Hydroxy-6-iodo-1-methyl-2-oxo-1,2-dihydro-1,8-naphthyridine-3-carboxamido)acetic acid] | < 50
18 | Cn1c(=O)c(C(=O)NCC(=O)O)c(O)c2cc(C3CCOC3)c(C(F)(F)F)nc21 (single isomer, unassigned) [Example 103, (R)-2-(4-Hydroxy-1-methyl-2-oxo-6-(tetrahydrofuran-3-yl)-7-(trifluoromethyl)-1,2-dihydro-1,8-naphthyridine-3-carboxamido)acetic acid or (S)-2-(4-Hydroxy-1-methyl-2-oxo-6-(tetrahydrofuran-3-yl)-7-(trifluoromethyl)-1,2-dihydro-1,8-naphthyridine-3-carboxamido)acetic acid] | < 50
19 | C[C@H](NC(=O)c1c(O)c2cc(-c3ccccc3)cnc2n(C)c1=O)C(=O)O [Example 74, (S)-2-(4-Hydroxy-1-methyl-2-oxo-6-phenyl-1,2-dihydro-1,8-naphthyridine-3-carboxamido)propanoic acid] | 100 to 500
20 | Cn1c(=O)c(C(=O)NCC(=O)O)c(O)c2ncc(-c3ccccc3)cc21 [Example 3, 2-(4-Hydroxy-1-methyl-2-oxo-7-phenyl-1,2-dihydro-1,5-naphthyridine-3-carboxamido)acetic acid] | 50 to 100
21 | Cn1c(=O)c(C(=O)NCC(=O)O)c(O)c2ccncc21 [Example 112, N-((4-Hydroxy-1-methyl-2-oxo-1,2-dihydro-1,7-naphthyridin-3-yl)carbonyl)glycine] | 50 to 100
22 | Cn1c(=O)c(C(=O)NCC(=O)O)c(O)c2cc(C3CCOC3)c(C(F)(F)F)nc21 (single isomer, unassigned) [Example 104, (R)-2-(4-Hydroxy-1-methyl-2-oxo-6-(tetrahydrofuran-3-yl)-7-(trifluoromethyl)-1,2-dihydro-1,8-naphthyridine-3-carboxamido)acetic acid or (S)-2-(4-Hydroxy-1-methyl-2-oxo-6-(tetrahydrofuran-3-yl)-7-(trifluoromethyl)-1,2-dihydro-1,8-naphthyridine-3-carboxamido)acetic acid] | 50 to 100
23 | Cc1cccc(C)c1-c1cnc2c(c1)c(O)c(C(=O)NCC(=O)O)c(=O)n2C [Example 40, N-((6-(2,6-Dimethylphenyl)-4-hydroxy-1-methyl-2-oxo-1,2-dihydro-1,8-naphthyridin-3-yl)carbonyl)glycine] | 100 to 500
24 | COCC#Cc1cnc2c(O)c(C(=O)NCC(=O)O)c(=O)n(C)c2c1 [Example 10, 2-(4-Hydroxy-7-(3-methoxyprop-1-ynyl)-1-methyl-2-oxo-1,2-dihydro-1,5-naphthyridine-3-carboxamido)acetic acid] | < 50

Reference: patent US8048892B2, “Azaquinolone based compounds exhibiting prolyl hydroxylase inhibitory activity, compositions, and uses thereof” (Amgen Inc., priority 2006, dated 2011)
